What was measured:
[1] = test system: woolly cupgrass; assay: Test C pre-/postemergence herbicide test; type: in vivo, Eriochloa villosa; conditions: for Cupgrass, Woolly plant response rating: Preemergence, scale 0 to 100, 0 no effect, 100 complete control
In short: (§1)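 Greenhouse-grown plants were evaluated visually 12 to 14 days after treatment, with 100 meaning complete control and 0 no effect. Application was preemergence, or postemergence at 2 to 18 cm.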

[2] = test system: yellow nutsedge; assay: Test C pre-/postemergence herbicide test; type: in vivo, Cyperus esculentus; conditions: for Nutsedge, Yellow plant response rating: Preemergence, scale 0 to 100, 0 no effect, 100 complete control
In short: as §1

[3] = test system: morningglory; assay: Test A pre-/postemergence herbicide test; type: in vivo, Ipomoea spp.
In short: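 Plants are held in greenhouse about ten days after treatment, then compared with untreated controls and scored 0 (no effect) to 100 (complete control). Preemergence dosing is a directed soil spray on sown sandy loam; postemergence dosing is spray to runoff at 2–10 cm height.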

[4] = test system: common (oilseed) sunflower; assay: Test C pre-/postemergence herbicide test; type: in vivo, Helianthus annuus; conditions: for Sunflower plant response rating: Preemergence, scale 0 to 100, 0 no effect, 100 complete control
In short: as §1

[5] = test system: bermudagrass; assay: Test C pre-/postemergence herbicide test; type: in vivo, Cynodon dactylon; conditions: for Bermudagrass plant response rating: Preemergence, 500 g ai/ha
In short: as §1

[6] = test system: giant foxtail; assay: Test C pre-/postemergence herbicide test; type: in vivo, Setaria faberi; conditions: for Foxtail, Giant plant response rating: Preemergence, scale 0 to 100, 0 no effect, 100 complete control
In short: as §1

[7] = test system: velvetleaf; assay: Test C pre-/postemergence herbicide test; type: in vivo, Abutilon theophrasti; conditions: for Plant response rating, Velvetleaf: preemergence; for Velvetleaf plant response rating: Preemergence, scale 0 to 100, 0 no effect, 100 complete control
In short: as §1

[8] = 125 g ai/ha, scale 0 (no effect) to 100 (complete control), visual, 12 to 14 days, preemergence
[9] = 250 g ai/ha, scale 0 to 100 (0 no effect, 100 complete control), visual, 12 to 14 days, preemergence
[10] = Postemergence, 500 g ai/ha, 0 to 100 scale, 0 no effect, 100 complete control
[11] = Postemergence, 2000 g ai/ha, 0 to 100 scale, 0 no effect, 100 complete control
[12] = scale 0 to 100, 0 no effect, 100 complete control
[13] = 125 g ai/ha, scale 0 (no effect) to 100 (complete control), visual, 12 to 14 days
[14] = 62 g ai/ha, preemergence, scale 0 to 100
[15] = 250 g ai/ha, scale 0-100, preemergence
[16] = 500 g ai/ha, scale 0 to 100 (0 no effect, 100 complete control), visual, 12 to 14 days, preemergence
[17] = Preemergence, 2000 g ai/ha, visual rating, 0 to 100 scale (0 no effect, 100 complete control)
[18] = preemergence, 500 g ai/ha, visual injury, 0 to 100 scale (0 no effect, 100 complete control)
[19] = 62 g ai/ha, preemergence, scale 0 to 100, 0 no effect, 100 complete control

Row | Structure (SMILES) | Plant response rating, Cupgrass, Woolly [1, 8] | Cupgrass, Woolly plant response rating ([1]; 500 g ai/ha) | Plant response rating, Nutsedge, Yellow [2, 8] | Nutsedge, Yellow plant response rating ([2]; 500 g ai/ha) | Plant response rating, Morningglory [3, 11] | Plant response rating, Sunflower [4, 8] | Sunflower plant response rating ([4]; 500 g ai/ha) | Plant response rating, Bermudagrass [5, 8] | Bermudagrass plant response rating [5, 12] | Plant response rating, Foxtail, Giant [6, 8] | Foxtail, Giant plant response rating ([6]; 500 g ai/ha) | Plant response rating, Velvetleaf [7, 13] | Velvetleaf plant response rating ([7]; 500 g ai/ha) | Plant response rating, Cupgrass, Woolly [1, 14] | Plant response rating, Cupgrass, Woolly [1, 15] | Plant response rating, Nutsedge, Yellow [2, 14] | Plant response rating, Nutsedge, Yellow [2, 15] | Morningglory plant response rating [3, 10] | Morningglory plant response rating [3, 17] | Morningglory plant response rating [3, 18] | further results
1 | CCn1nc(C(C)(C)C)cc1C(=O)Nc1cccc(C(=O)NCC(C)C)c1 [Compound 61] | 0 | 10 | 0 | 30 | 20 | 0 | 0 | 70 | 95 | 20 | 60 | 45 | 100 | – | – | – | – | – | – | – | Plant response rating (0 = no effect, 100 = complete control), Cupgrass, Woolly ([1]; 62 g ai/ha, preemergence): 0; Plant response rating, Cupgrass, Woolly [1, 9]: 0; Plant response rating (0 = no effect, 100 = complete control), Nutsedge, Yellow ([2]; 62 g ai/ha, preemergence): 0; Plant response rating, Nutsedge, Yellow [2, 9]: 10; Plant response rating, Morningglory [3, 10]: 10; Morningglory plant response rating ([3]; Preemergence, 500 g ai/ha, visual rating, 0 to 100 scale (0 no effect, 100 complete control)): 20; Morningglory plant response rating ([3]; Preemergence, 2000 g ai/ha, 0 to 100 scale, 0 no effect, 100 complete control): 50; Plant response rating (0 = no effect, 100 = complete control), Sunflower ([4]; 62 g ai/ha, preemergence): 0; Plant response rating, Sunflower [4, 9]: 0; Plant response rating (0 = no effect, 100 = complete control), Bermudagrass ([5]; 62 g ai/ha, preemergence): 10; Plant response rating, Bermudagrass [5, 9]: 80; Plant response rating (0 = no effect, 100 = complete control), Foxtail, Giant ([6]; 62 g ai/ha, preemergence): 0; Plant response rating, Foxtail, Giant [6, 9]: 40; Plant response rating, Velvetleaf ([7]; 250 g ai/ha, scale 0 to 100 (0 no effect, 100 complete control), visual, 12 to 14 days): 80
2 | CCN(CC)C(=O)c1cccc(NC(=O)c2cc(C(C)(C)C)nn2C)n1 [Compound 314] | 0 | – | 0 | – | 50 | – | – | 60 | 90 | 0 | – | – | – | 0 | 0 | 0 | 0 | 30 | 30 | 10 | Plant response rating, Cupgrass, Woolly [1, 16]: 20; Plant response rating, Nutsedge, Yellow [2, 16]: 0; Plant response rating, Sunflower [4, 14]: 0; Plant response rating, Sunflower [4, 15]: 20; Plant response rating, Sunflower [4, 16]: 45; Plant response rating, Bermudagrass [5, 19]: 10; Plant response rating, Bermudagrass [5, 15]: 60; Plant response rating, Foxtail, Giant [6, 14]: 0; Plant response rating, Foxtail, Giant [6, 15]: 20; Plant response rating, Foxtail, Giant [6, 16]: 70; Plant response rating, Velvetleaf ([7]; 62 g ai/ha, scale 0 to 100): 0; Plant response rating, Velvetleaf ([7]; 250 g ai/ha, scale 0-100): 80; Plant response rating, Velvetleaf ([7]; 500 g ai/ha, scale 0 to 100 (0 no effect, 100 complete control), visual, 12 to 14 days): 85
3 | CCc1nc(C(C)(C)C)sc1C(=O)Nc1cccc(C(=O)N(CC)CC)c1 [Compound 205] | 10 | 50 | 0 | 10 | 20 | 0 | 0 | 100 | 100 | 10 | 95 | 40 | 100 | 0 | 10 | 0 | 0 | 25 | 45 | 30 | Plant response rating, Sunflower [4, 14]: 0; Plant response rating, Sunflower [4, 15]: 0; Plant response rating, Bermudagrass [5, 19]: 90; Plant response rating, Bermudagrass [5, 15]: 100; Plant response rating, Foxtail, Giant [6, 14]: 0; Plant response rating, Foxtail, Giant [6, 15]: 80; Plant response rating, Velvetleaf ([7]; 62 g ai/ha, scale 0 to 100): 10; Plant response rating, Velvetleaf ([7]; 250 g ai/ha, scale 0-100): 60
